From US9856259B2, “Heterocyclic compounds and uses thereof” (Plexxikon Inc., priority 2014, dated 2018)

Assays:
MV-4-11 = test: Oncology cell growth assay, MV-4-11 3 d growth; type: cell-based; conditions: Homo sapiens, MV4-11; MV-4-11 cells, 72 hours, CellTiter Glo; read-out: Cell activity (IC50 μM) MV-4-11 3 d-Growtb
Protocol: (§1) In this study, we test compounds in different cancer cell lines. MV-4-11 and MOLM-13 are AML cell lines harboring a MLL-AF4 and MLL-AF9 translocation, respectively. MM.1S is a multiple myeloma cell line. SK—N-AS, IMR-32 and SK-N-BE(2) are neuroblastoma cell lines. IMR-32 and SK-N-BE(2) cell lines harbor MYCN amplifications.
(§2) MV-4-11, MM.1S, IMR-32, SK-N-AS and SK-N-BE(2) were obtained from ATCC (IL, USA) and MOLM-13 were purchased from DSMZ (Braunschweig, German). Cells are cultured as recommended by their sources. For growth inhibition studies 3000 cells are seeded in wells of a 96-well plate in 75 μL of culture media. After several hours, growth media containing compounds of formula (I) are added to the wells. Compound at a maximal concentration of 5 mM was serially diluted 1:3 for a total of 8 point titration with DMSO as a control. A 1 μL aliquot of each dilution point is added to 249 μL growth media and 75 μL is added to each well containing cells, providing 10 μM compound at the maximum concentration point. The final concentration of DMSO in all wells is 0.2%. Cells are incubated for 72 hours, and 25 μL of CellTiter Glo Reagent (Promega Ga., USA) is added to each well. Plates are shaken for approximately 10 minutes and chemiluminescent signal is read on Tecan microplate reader. The measured luminescence correlates directly with cell number.
(§3) All data is normalized to the mean of eight DMSO high control wells on each plate. A four parameter curve fit of the following formula was then applied: Y=a+(b−a)/(1+(x/c)^d) Where ‘a’ is the minimum, ‘b’ is the maximum, ‘c’ is the pIC50 and ‘d’ is the Hill slope. […] Myc Reporter Assay

[1] = system: cancer cell lines / MV-4-11 Myc reporter cell line; test: Bromodomain cell assays of Example 8 (at least one of them); type: cell-based; conditions: Homo sapiens, MV4-11; at least one of the bromodomain cell assays described in Example 8
Protocol: as §1, §2, §3
In MV-4-11 cells, BRD2, BRD3 and BRD4 bind to the promoter region of MYC and regulate its transcription (Dawson M A et al. 2011). The literature bromodomain inhibitor iBET 151 could disrupt BRD4 recruitment to the MYC promoter and subsequently downregulate c-myc transcription (Dawson M A et al. 2011). Myc protein is a transcription factor that heterodimerizes with an obligatory partner Max and regulates the transcription of genes important for cell proliferation, differentiation, and apoptosis. This Myc reporter assay is used to monitor the inhibitory effect of compound of formula (I) on Myc dependent gene expression. Effective compounds could have potential therapeutic effects in Myc-driven tumors.
The MV-4-11 Myc reporter cell line is established by infecting MV-4-11 with VSV-g pseudotyped lentivirus expressing the firefly luciferase gene under the control of a minimal (m) CMV promoter and tandem repeats of the E-box transcriptional response element (TRE) (Qiagen IL, USA) and selecting cells in 2.5 μg/ml Puromycin.
The MV-4-11 Myc reporter cell line is maintained in Iscove's Modified Dulbecco's Medium containing 10% FBS, 1% PenStep and 2.5 μg/ml Puromycin. Cells are incubated at 37° C. in a humidified atmosphere with 5% CO2. 25,000 cells are seeded in 96-well plate in 50 μL of culture media. After several hours, growth media containing 2× compounds are added to the wells. Compound at a maximal concentration of 5 mM is serially diluted 1:3 for a total of 8 point titration. A 1 μl aliquot of each dilution point is added to 249 μl growth media and 50 μl is added to each well containing cells, providing 10 μM compound at the maximum concentration point. DMSO treated cells serve as a high control and 10 μM JQ1 treated cells serve as a low control. Cells are incubated for a further 24 hours and 25 μL of CellTiter-Fluo Reagent (Promega Ga., USA) is added to each well. Plates are shaken for approximately 2 minutes and incubated at 37° C. for 0.5 hour. Fluorescence signal is read in a Tecan Plate reader (λex=400 nm, λcm=505 nm). 25 μL of One-Glo Reagent (Promega Ga., USA) is then added to the plates. Chemiluminescent signal is read on Tecan plate reader. Values from the wells with no cells are subtracted from all samples for background correction. […]

BRD4-BD12 = molecular target: T1, BRD4-BD12 (Homo sapiens, UniProt O60885); test: Alphascreen binding assay, BRD4(1 2) H4; conditions: BRD4 dual bromodomains with acetylated Histone 4 peptide, read-out: Biochemical activity (IC50 μM) BRD4(1 2) H4
T1 construct: dual bromodomains (BRD4-BD12 (1-477), BRD4-BD12 (1-472)); six-His tag (N); made in house; host or cells: E. coli BL21-CodonPlus (DE3)
Protocol: Binding of compounds of formula (I) with bromodomain 2, 3 4 was assessed using Alphascreen binding assay. The inhibition of the interaction between bromodomain and its acetylated target protein (Filippakopoulos P et al. 2012) was measured quantitatively using recombinant BRD proteins, an acetylated Histone 4 peptide and AlphaScreen™ technology. In absence of inhibition the BRD protein bound to AlphaScreen™ nickel chelate acceptor beads can interact with the acetylated Histone 4 peptide which is immobilized by the AlphaScreen™ Streptavidin coated beads. This interaction brings donor and acceptor beads in proximity. The close proximity allows the singlet oxygen produced by laser excitation of the donor beads to reach the acceptor beads and generate a luminescence signal. BRD inhibitors result in a decrease in the proximity signal through an inhibition of the BRD acetylated peptide interaction.
Recombinant human bromodomains containing the N-terminal bromodomain (BRD2-BD1 (71-194), BRD3-BD1 (24-144) and BRD4-BD1 (44-164)) or dual bromodomains (BRD4-BD12 (1-477), BRD4-BD12 (1-472)) were prepared and purified as described in protein expression and purification session. The peptide is human Histone H41-21K5AcK8AcK12AcK16Ac-Biotin (Anaspec Calif., USA).
Protocol for BRD2, BRD3 and BRD4 assay: All components are prepared in buffer composed of 50 mM HEPES pH 7.5, 100 mM NaCl, 0.01% BSA, 0.01% Triton X-100, 2 mM DTT. 7 μL of Bromodomain protein and 7 μL of peptide are added to wells containing 1 μL of various concentrations of test compounds of formula (I) or DMSO vehicle in an Alphaplate (PerkinElmer Ga., USA) and incubated for 1 hour at room temperature. 4 μL donor and acceptor bead mixture is then added with final concentrations of 7.5 μg/ml. 30 minutes after bead addition, Alpha signal is read on the Envision spectrometer (λEx 680 nm, λEm 520-620 nm). Final concentrations of bromodomain proteins and peptide are as shown below.
All data was normalized to the mean of 16 high and 16 low control wells on each plate. A four parameter curve fit of the following formula was then applied: Y=a+(b−a)/(1+(x/c)^d) Where ‘a’ is the minimum, ‘b’ is the maximum, ‘c’ is the pIC50 and ‘d’ is the Hill slope. Protein Expression and Purification
Recombinant human bromodomains containing the N-terminal bromodomain (BRD2-BD1 (71-194), BRD3-BD1 (24-144) and BRD4-BD1 (44-164)) or dual bromodomains (BRD4-BD12 (1-477), BRD4-BD12 (1-472)) were expressed in E. coli cells (in a modified pET vector) with an N-terminal six-His tag and purified using a combination of both IMAC (Ni-affinity) and size exclusion chromatography steps.
Recombinant BRD proteins were expressed using the E. coli strain BL21-CodonPlus (DE3) (Agilent Technologies CA, USA). Cells were grown in Terrific Broth (TB) media to an OD600 of 1.2 at 37° C. at which temperature was reduced to 25° C., protein was induced with 1.0 mM IPTG for 12-18 hours and harvested by centrifugation at 8000×g for 20 minutes. Cells were re-suspended in 0.1M KPO4 pH 8.0, 250 mM NaCl, 10% Glycerol, 0.75% NP-40, 25 mM Imidazole, 5 mM BME with 0.2 mg/ml Lysosyme, 2.0 mM PMSF, 25 μg/ml DNAse I, incubated on ice for 30 minutes and lyzed with a cell disruptor (MicroFluidics MA, USA). The lysate was clarified by centrifugation at 20,000×g for 2 hours. The protein was captured with Ni-NTA resin (Life Technologies, USA). Contaminating proteins were washed off with 25 mM Tris-HCl pH 8.3, 250 mM NaCl, 12% Glycerol and 50 mM Imidazole. Following 3× wash steps, protein was eluted step wise using a 50 mM HEPES pH 7.5, 500 mM NaCl and 400 mM Imidazole. The protein was further purified using Gel Filtration column 26/600 Superdex 200 (GE Biosciences N.J., USA) in 50 mM HEPES pH 7.5, 250 mM NaCl. The protein was aliquoted and flash-frozen in liquid Nitrogen.

| Compound | IC50 (MV-4-11) | IC50 [1] | IC50 (BRD4-BD12) |
| --- | --- | --- | --- |
| Cc1noc(C)c1-c1ccc2c(-c3cnn(C)c3)nn(CC3CCC(F)(F)CC3)c2c1 [Compound P-2001, 4-[1-[(4,4-difluorocyclohexyl)methyl]-3-(1-methylpyrazol-4-yl)indazol-6-yl]-3,5-dimethyl-isoxazole] | ≤ 1 µM | < 10 µM | ≤ 1 µM |
| Cc1noc(C)c1-c1ccc2c(-c3cnn(CC(F)(F)F)c3)nn(CC3CCC(F)(F)CC3)c2c1 [Compound P-2002, 4-[1-[(4,4-difluorocyclohexyl)methyl]-3-[1-(2,2,2-trifluoroethyl)pyrazol-4-yl]indazol-6-yl]-3,5-dimethyl-isoxazole] | ≤ 1 µM | < 10 µM | ≤ 1 µM |
| Cc1noc(C)c1-c1ccc2c(I)nn(C(c3ccccc3)c3ccccn3)c2c1 (stereo not drawn) [Compound P-2003, 4-[3-iodo-1-[phenyl(2-pyridyl)methyl]indazol-6-yl]-3,5-dimethyl-isoxazole] | ≤ 1 µM | < 10 µM | ≤ 1 µM |
| Cc1noc(C)c1-c1ccc2c(-c3cnn(C)c3)nn(C(c3ccccc3)c3ccccn3)c2c1 (stereo not drawn) [Compound P-2004, 3,5-dimethyl-4-[3-(1-methylpyrazol-4-yl)-1-[phenyl(2-pyridyl)methyl]indazol-6-yl]isoxazole] | ≤ 1 µM | < 10 µM | ≤ 1 µM |
| Cc1noc(C)c1-c1ccc2c(-c3cnn(CC(F)(F)F)c3)nn(C(c3ccccc3)c3ccccn3)c2c1 (stereo not drawn) [Compound P-2005, 3,5-dimethyl-4-[1-[phenyl(2-pyridyl)methyl]-3-[1-(2,2,2-trifluoroethyl)pyrazol-4-yl]indazol-6-yl]isoxazole] | ≤ 1 µM | < 10 µM | ≤ 1 µM |
| COC(=O)c1ccc(-c2nn(C(c3ccccc3)c3ccccn3)c3cc(-c4c(C)noc4C)ccc23)cc1 (stereo not drawn) [Compound P-2006, methyl 4-[6-(3,5-dimethylisoxazol-4-yl)-1-[phenyl(2-pyridyl)methyl]indazol-3-yl]benzoate] | ≤ 1 µM | < 10 µM | ≤ 1 µM |
| Cc1noc(C)c1-c1ccc2c(-c3ccc(C(=O)O)cc3)nn(C(c3ccccc3)c3ccccn3)c2c1 (stereo not drawn) [Compound P-2007, 4-[6-(3,5-dimethylisoxazol-4-yl)-1-[phenyl(2-pyridyl)methyl]indazol-3-yl]benzoic acid] | ≤ 1 µM | < 10 µM | ≤ 1 µM |
| COC(=O)Cc1ccc(-c2nn(C(c3ccccc3)c3ccccn3)c3cc(-c4c(C)noc4C)ccc23)cc1 (stereo not drawn) [Compound P-2008, methyl 2-[4-[6-(3,5-dimethylisoxazol-4-yl)-1-[phenyl(2-pyridyl)methyl]indazol-3-yl]phenyl]acetate] | ≤ 1 µM | < 10 µM | ≤ 1 µM |
| Cc1noc(C)c1-c1ccc2c(-c3ccc(CC(=O)O)cc3)nn(C(c3ccccc3)c3ccccn3)c2c1 (stereo not drawn) [Compound P-2009, 2-[4-[6-(3,5-dimethylisoxazol-4-yl)-1-[phenyl(2-pyridyl)methyl]indazol-3-yl]phenyl]acetic acid] | ≤ 1 µM | < 10 µM | ≤ 1 µM |
| Cc1noc(C)c1-c1ccc2c(I)nn([C@@H](C)c3ccccn3)c2c1 [Compound P-2010, 4-[3-iodo-1-[(1S)-1-(2-pyridyl)ethyl]indazol-6-yl]-3,5-dimethyl-isoxazole] | ≤ 1 µM | < 10 µM | ≤ 1 µM |
| COC(=O)c1ccc(-c2nn([C@@H](C)c3ccccn3)c3cc(-c4c(C)noc4C)ccc23)cc1 [Compound P-2011, methyl 4-[6-(3,5-dimethylisoxazol-4-yl)-1-[(1S)-1-(2-pyridyl)ethyl]indazol-3-yl]benzoate] | ≤ 1 µM | < 10 µM | ≤ 1 µM |
| COC(=O)Cc1ccc(-c2nn([C@@H](C)c3ccccn3)c3cc(-c4c(C)noc4C)ccc23)cc1 [Compound P-2012, methyl 2-[4-[6-(3,5-dimethylisoxazol-4-yl)-1-[(1S)-1-(2-pyridyl)ethyl]indazol-3-yl]phenyl]acetate] | ≤ 1 µM | < 10 µM | ≤ 1 µM |
